Measurements from patent US8071645B2, “Systems and methods for treating human inflammatory and proliferative diseases and wounds, with fatty acid metabolism inhibitors and/or glycolytic inhibitors” (The Regents of the University of Colorado, priority 2003, dated 2011).

Tests used:
[1] = system: cell surface Fas (CD95) on B16F1 melanoma cells; assay: cell surface Fas (CD95) expression on B16F1 melanoma cells; type: cell-based; settings: 48 hours
Description: Cell Surface Staining. Non-permeabilized cells were stained with antibodies to the cell surface receptors Fas (CD95) (Pharmingen) or with antibodies to uncoupling proteins (anti-UCP2 antibody) (Alpha Diagnostic International). Antibodies for both the isotype control and actual stain were added to the cell suspension, mixed, and then placed on ice for and incubation of 25 minutes in the dark. Subsequently the cells were centrifuged at 300×g for 5 minutes and the supernatant removed. The cells were washed one time with 100 μL of PBS/2.5% FBS and then transferred into flow cytometric tubes containing 500 μL of PBS/2.5% FBS for analysis.
B16F1 melanoma cells were cultured at a concentration of 0.5 to 1 million cells per ml. Cells were harvested and analyzed by flow cytometry. Dot plots are shown in FIG. 15 as functions of live versus dead cells. Each dot on the dot plot represents one cell. Five thousand cells were assessed for forward scatter (FS), as a function of cell size, versus side scatter (SS), as a function of cellular granularity. […]
Referring to FIGS. 17 and 18, B16F1 melanoma cells of Example 12 were untreated or treated with etomoxir at the indicated concentrations for 48 hours. Cells were harvested, stained with fluorochrome conjugated anti-Fas antibody (Pharmingen) and analyzed by flow cytometry.

B16F1 melanoma cells = assay: DCFDA staining (reactive oxygen species) of B16F1 melanoma cells; type: cell-based; settings: 48 hours, FIG. 19
Description: Metabolic Activity Assay. Cells were prepared as previously described. The specific metabolic dye was added and mixed into the cell suspension. This plate was then placed into the 37° incubator for a 20-minute incubation. After incubation, the cells were centrifuged at 300×g for 5 minutes, and the supernatant was removed. The cells were then washed once with PBS/2.5% FBS and transferred into flow cytometric tubes containing 500 μL of PBS/2.5% FBS for analysis
5-(and -6)-Chloromethyl-2′,7′-dichlorodihydrofluorescein diacetate (CMH2DCFDA) (Molecular Probes). One vial of DCFda provides 10 tests and contains 50 μg. This is unstable and can't be stored. Therefore, each vial was opened and 43 μL of DMSO was added. […]
Geometric Mean Fluorescence. […] Once the stained sample was plotted against the control (isotype or unstained), geometric mean fluorescence values were obtained for both histogram peaks. The stained control sample value was subtracted from sample to identify the actual fluorescence of the stained sample over that of the control.
B16F1 melanoma cells of Example 12 were untreated or treated with etomoxir at the indicated concentrations for 48 hours. Cells were harvested, stained with DCFDA as described in Materials and Methods, and analyzed by flow cytometry. The value of DCFDA was then calculated as described in Materials and Methods.

HL60 MDR tumor = HL60 MDR tumor implanted in nude mice, tumor volume; type: in vivo
From the text: Tumor implantation. Mice were purchased from the Animal Production Program of National Cancer Institute, Frederick, Md. The animals used were Athymic Ncr-nu/nu (strain code 01B74). HL60 MDR cells were harvested and reconstituted at 1 million cells per 100 microliters of phosphate buffered saline. One million tumor cells per injection site were implanted subcutaneously on two sites of the animal's back. Treatments began at exactly seven days post tumor implantation. Tumor size/volume was monitored twice weekly using measurement calipers, with the formula Tumor Volume=π×(short diameter)^2×(long diameter)/6.
Mice experiments with fatty acid metabolism and glycolytic inhibitors. Fatty acid metabolism inhibitors were exemplified by etomoxir at 200 micrograms/day. Glycolytic inhibitors were exemplified by 2-deoxy-D-glucose at 2.5 mM in 100 microliters daily. The combination was administered daily, etomoxir at 200 micrograms and 2-deoxy-D-glucose at 2.5 mM in 100 microliters. All drugs were administered intra-peritoneally. 5-Fluoro-uracil, at 20 mg per kilogram mouse, was injected intra-peritoneally once a week
HL60 MDR human leukemia cells were cultured and implanted in nude mice as described above under “Materials and Methods”. The mice were given 200 ug of Etomoxir, 2.5 mM 2-Deoxy-D-glucose, or both 200 ug of Etomoxir and 2.5 mM 2-Deoxy-D-glucose given daily by IP injection. Treatment began exactly one week after tumor implantation.

CCOC(=O)C1(CCCCCCOc2ccc(Cl)cc2)CO1 (centres unmarked) [etomoxir, 2-(6-(4-chlorophenoxy)-hexyl)-oxirane-2-carboxylic acid ethyl ester]
cell surface Fas expression, live cell population ([1]; FIG. 17): dose dependent increase | cell surface Fas expression, dead cell population ([1]; FIG. 18): dose dependent increase | reactive oxygen species as measured by DCFDA (B16F1 melanoma cells): dose dependent increase | tumor growth versus control (HL60 MDR tumor; 21 day period, single agent): increase in tumor growth | tumor volume, Day 7 (HL60 MDR tumor; Day 7 after implantation (start of treatment), 200 ug Etomoxir and/or 2.5 mM 2-Deoxy-D-glucose daily IP): 36 mm^3 | tumor volume, Day 9 (HL60 MDR tumor; Day 9, 200 ug Etomoxir and/or 2.5 mM 2-Deoxy-D-glucose daily IP): 71.73 mm^3 | tumor volume, Day 15 (HL60 MDR tumor; Day 15, 200 ug Etomoxir and/or 2.5 mM 2-Deoxy-D-glucose daily IP): 261.35 mm^3 | tumor volume, Day 21 (HL60 MDR tumor; Day 21, 200 ug Etomoxir and/or 2.5 mM 2-Deoxy-D-glucose daily IP): 895.09 mm^3
